Converted amounts (≈) assume the structure as drawn.
What was measured:
[1] = test system: Mycobacterium tuberculosis; test: Antimycobacterial activity against isoniazid and rifampicin resistant Mycobacterium tuberculosis 11277 by MABA method; type: functional
[2] = test system: Mycobacterium tuberculosis; test: Antimycobacterial activity against isoniazid and rifampicin resistant Mycobacterium tuberculosis 6133 by MABA method; type: functional

Row | SMILES | MIC [1] [µg/mL] | MIC [2] [µg/mL]
1 | CO/N=C1/CCN(c2c(F)cc3c(=O)c(C(=O)O)cn([C@@H]4C[C@@H]4F)c3c2OC)CC1N (stereo partly specified) | 0.125 (≈ 0.286 µM) | 0.0625 (≈ 0.143 µM)
2 | CO/N=C1/CN(c2c(F)cc3c(=O)c(C(=O)O)cn([C@@H]4C[C@@H]4F)c3c2OC)[C@H]1CN | 0.25 (≈ 0.592 µM) | 0.125 (≈ 0.296 µM)
3 | CCO/N=C1/CN(c2cc3c(cc2F)c(=O)c(C(=O)O)cn3[C@@H]2C[C@@H]2F)CC1CN (stereo partly specified) | 0.125 (≈ 0.297 µM) | 0.125 (≈ 0.297 µM)
4 | NCC1CN(c2cc3c(cc2F)c(=O)c(C(=O)O)cn3[C@@H]2C[C@@H]2F)C/C1=N/OCc1ccccc1 (stereo partly specified) | 0.25 (≈ 0.518 µM) | 0.125 (≈ 0.259 µM)
5 | CO/N=C1/CN(c2cc3c(cc2F)c(=O)c(C(=O)O)cn3[C@@H]2C[C@@H]2F)[C@H]1CN | 0.25 (≈ 0.637 µM) | 0.125 (≈ 0.319 µM)
6 | NC[C@H]1/C(=N\OCc2ccccc2)CN1c1cc2c(cc1F)c(=O)c(C(=O)O)cn2[C@@H]1C[C@@H]1F | 0.5 (≈ 1.07 µM) | 0.25 (≈ 0.534 µM)
7 | CO/N=C1/CN(c2nc3c(cc2F)c(=O)c(C(=O)O)cn3[C@@H]2C[C@@H]2F)CC1CN (stereo partly specified) | 0.25 (≈ 0.614 µM) | 0.125 (≈ 0.307 µM)
8 | CCO/N=C1/CN(c2nc3c(cc2F)c(=O)c(C(=O)O)cn3[C@@H]2C[C@@H]2F)CC1CN (stereo partly specified) | 0.125 (≈ 0.297 µM) | 0.125 (≈ 0.297 µM)
9 | NCC1CN(c2nc3c(cc2F)c(=O)c(C(=O)O)cn3[C@@H]2C[C@@H]2F)C/C1=N/OCc1ccccc1 (stereo partly specified) | 0.5 (≈ 1.03 µM) | 0.125 (≈ 0.259 µM)
10 | O=C(O)c1cn(C2CC2)c2cc(N3CCNCC3)c(F)cc2c1=O [CIPROFLOXACIN] | 0.125 (≈ 0.377 µM) | 0.125 (≈ 0.377 µM)
11 | NNC(=O)c1ccncc1 [ISONIAZID] | 1 (≈ 7.29 µM) | 4 (≈ 29.2 µM)
12 | C[C@H]1COc2c(N3CCN(C)CC3)c(F)cc3c(=O)c(C(=O)O)cn1c23.C[C@H]1COc2c(N3CCN(C)CC3)c(F)cc3c(=O)c(C(=O)O)cn1c23.O [LEVOFLOXACIN] | 0.125 | 0.125
13 | CO[C@H]1/C=C/O[C@@]2(C)Oc3c(C)c(O)c4c(O)c(c(/C=N/N5CCN(C)CC5)c(O)c4c3C2=O)NC(=O)/C(C)=C\C=C\[C@H](C)[C@H](O)[C@@H](C)[C@@H](O)[C@@H](C)[C@H](OC(C)=O)[C@@H]1C [RIFAMPIN] | > 40 | > 40

Source: ChEMBL document CHEMBL3352227, “Synthesis, antimycobacterial and antibacterial evaluation of l-[(1R, 2S)-2-fluorocyclopropyl]fluoroquinolone derivatives containing an oxime functional moiety” (Eur J Med Chem, 2014)
